Biological target: T1, KDM5A_c2 (Homo sapiens, UniProt P29375)
T1 sequence (P29375 with tags, fused parts or gaps): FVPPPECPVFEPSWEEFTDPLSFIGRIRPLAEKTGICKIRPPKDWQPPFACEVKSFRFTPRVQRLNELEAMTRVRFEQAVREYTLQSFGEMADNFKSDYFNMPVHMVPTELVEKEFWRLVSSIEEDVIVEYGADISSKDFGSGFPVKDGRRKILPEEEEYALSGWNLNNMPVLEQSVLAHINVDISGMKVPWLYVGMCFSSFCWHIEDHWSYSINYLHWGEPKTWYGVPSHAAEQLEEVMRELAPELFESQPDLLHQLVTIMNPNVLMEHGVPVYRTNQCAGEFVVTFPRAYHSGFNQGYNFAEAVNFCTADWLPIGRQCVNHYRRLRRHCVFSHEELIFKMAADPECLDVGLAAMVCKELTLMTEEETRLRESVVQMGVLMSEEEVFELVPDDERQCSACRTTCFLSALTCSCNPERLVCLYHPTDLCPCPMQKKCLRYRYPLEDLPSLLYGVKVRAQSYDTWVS
Assay: Formaldehyde dehydrogenase (FDH) enzyme-coupled fluorescence assay, kinetic analysis
Type: biochemical
Experimental: Enzyme mixture (25 µL) containing KDM5A-c2 (0.5 µM) and FDH (2.0 µM) in FDH buffer [50mM HEPES (50 mM), Tween20 (0.1%), NaCl (50 mM), pH 7.5 in MQ)] was prepared and aliquoted in a 384-well flat-bottom microplate (µClear, Greiner). The peptide mixture (25 µL) [ascorbate (2 mM), (NH4)2Fe(II)(SO4)2 (100 µM), 2OG (400 µM), H3(1-21)K4me3 peptide (ranging from 0 to 100 µM), β-NAD (500 µM), 2a (0 to 160 µM, in DMSO (2% final in this solution)) in FDH buffer] was added to initiate the reaction and the fluorescence was monitored (every 30 seconds over 25 min at 25.0 °C) using the PHERAstar (BMG LABTECH). The initial rates at each peptide concentrations were used to generate the Michaelis-Menten plots. Combined datasets from two independent experiments were globally fitted to a mixed inhibition model using Prism Ver 7.01, and Ki and α values were determined. Lineweaver-Burk plots were also generated using Prism Ver 7.01

[1] = KDM5A_c2, mixed inhibition model, with respect to H3K4me3 substrate, N=2

In the case of `CCCCc1oc2ccccc2c1C(=O)c1ccc(OCCC[N+](C)(C)C)cc1.[I-]` [Compound 2a, 3-(4-(2-Butylbenzofuran-3-carbonyl)phenoxy)-N,N,N-trimethylpropan-1-aminium iodide], the “substrate of KDM5A_c2 (formaldehyde production in the absence of H3K4me3)” value (FDH coupled assay, no H3K4me3) is reported as “not a substrate”, the “mode of inhibition with respect to H3K4me3” value (KDM5A_c2, Lineweaver-Burk plots) is reported as “non-competitive” and the Ki [1] is reported as 74 ± 28 µM. For the same compound, the α [1] was 1.64 ± 0.85.

Reference: PMC6380468, “Investigations on small molecule inhibitors targeting the histone H3K4 tri-methyllysine binding PHD-finger of JmjC histone demethylases” (Bioorganic & Medicinal Chemistry, 2018)
